Assay results taken from US20260034091A1, “Compositions and Methods for Treating Metabolic Disorders” (The Regents of the University of California, priority 2022, published 2026).

Key:
[1] = system: CDAHFD diet-induced NAFLD/NASH with PPARA KO; test: TOFA in genetic PPARA knockout mice, CDAHFD model of NAFLD/NASH; assay type: in vivo, PPARA knockout (PPARA KO) male mice
Protocol: Six-week-old genetic PPARA knockout (PPARA KO) male mice were fed with a L-amino acid diet with 60 kcal % fat with 0.1% methionine and no added choline (CDAHFD; Research Diets A06071302i) for three weeks or fed with a 60 kcal % fat diet (DIO; Research Diets A12492i) for eight weeks before introduction of either vehicle (control) or 125 mg/kg of TOFA, BID, via oral gavage for an additional two weeks (FIG. 11A and FIG. 11J, respectively). C57BL/6J (WT) mice were fed with the CDAHFD and underwent similar experimental conditions and time course. Mice weights and adverse events were monitored during the treatment time course. Upon study termination, serum and liver samples were collected. Serum liver damage biomarkers, ALT and AST, were measured by commercially available kits (abcam105134 and abcam 105135, respectively). Hepatic and serum triglyceride levels were measured from a commercially available kit (abcam65336). Total RNA was extracted from liver tissues (Qiagen RNeasy kit 74106), and cDNA was prepared (BioRAD iScript™M Reverse Transcription) according to manufacturer's protocols. Quantitative PCR (qPCR) was performed with fast SYBR Green Mix (ThermoFisher A25742) on the QuantStudio6 System (Applied Biosciences). Protein expression levels of liver samples were measured by western blot using antibodies against ACC1/2 (CST3662, 1:1000), VLDLR (AF2258, 1:2000), CPT1A (CST12252, 1:1000), PPARA (abcam126285, 1:1000) and beta-tubulin (CST2146, 1:1000). Membranes were developed using a HRP secondary antibody (1:5000) and visualized using an enhanced chemiluminescent HRP substrate (Thermo34577). Additional liver samples were fixed in 4% paraformaldehyde and embedded in paraffin blocks for sectioning and subsequently stained with hematoxylin and eosin (H&E). Frozen fresh liver tissue was embedded in OCT, sectioned, and subsequently stained with Oil Red O.

[2] = system: chow diet fed mice; test: Tolerability and toxicity of TOFA in ad libitum fed chow mice; assay type: in vivo, C57BL/6J male mice; conditions: oral gavage
Protocol: Eleven-week-old C57BL/6J male mice were fed with PicoLab Rodent Diet (Purina 5053), or chow diet, ad libitum while being treated with either control or 125 mg/kg, BID by oral gavage for three weeks. Mice weights were tracked during the entire time course. Upon study termination, serum and liver samples were collected. Serum biomarkers such as blood urea nitrogen (BUN) and creatinine were assessed by commercially available kits (abcam83362 and Cayman700460, respectively). Additionally, hepatic and serum triglyceride and cholesterol levels were measured by commercially available kits (abcam65336 and abcam65390, respectively).

[3] = system: PPAR signaling pathway; test: RNA sequencing, qPCR and western blot of liver samples from CDAHFD late stage NAFLD/NASH mice; assay type: in vivo, C57BL/6 male mice
Protocol: Six-week-old C57BL/6 male mice were fed with a L-Amino Acid Diet With 60 kcal % Fat With 0.1% Methionine and No Added Choline (Research Diets A06071302i) for eight weeks before introduction of either vehicle (control) or 250 mg/kg of TOFA daily via twice daily controlled oral gavage for an additional four weeks (FIG. 3A). Upon study termination at 12 weeks, serum and liver samples were collected. Serum liver damage biomarkers, ALT and AST, were measured by commercially available kits (abcam105134 and abcam 105135, respectively). Hepatic and serum triglyceride levels were measured from a commercially available kit (abcam65336). Liver samples were fixed in 4% paraformaldehyde and embedded in paraffin blocks for sectioning and subsequently stained with hematoxylin and eosin (H&E) or Picrosirius Red with a fast green dye background. Frozen fresh liver tissue was embedded in OCT, sectioned, and subsequently stained with Oil Red O.
Liver samples were collected from mice in Example 3 (see above). Total RNA was extracted from liver tissues (Qiagen RNeasy kit), cDNA libraries were constructed (Roche KAPA HyperPrep kit), sequenced on the NovaSeq6000 platform (Novogene), and a downstream analysis pipeline was performed. Differentially expressed genes (DEGs) were defined by at least one log2-fold change (2-fold in linear scale) with an FDR cutoff of 0.05. For validation, total RNA was used to prepare cDNA (BioRAD iScript™ Reverse Transcription) according to manufacturer's protocol and quantitative polymerase chain reaction (qPCR) was performed with fast SYBR Green Mix (ThermoFisher) on the QuantStudio6 System (Applied Biosystems). Protein expression levels were measured by western blot using antibodies against very low density lipoprotein receptor (VLDLR) (AF2258, 1:2000) and btubulin (CST2146, 1:1000). Membranes were developed using a horse radish peroxidase (HRP) secondary antibody (1:5000) and visualized using an enhanced chemiluminescent HRP substrate (Thermo34577).

[4] = 125 mg/kg, BID, three weeks, chow diet
[5] = liver samples of Example 3, RNA-seq

Structure (SMILES): CCCCCCCCCCCCCCOc1ccc(C(=O)O)o1 [TOFA, 5-(Tetradecyloxy)-2-furoic acid]
- body weight ([1]; 125 mg/kg BID oral gavage, two weeks): trending decrease in weight
- Cpt1a mRNA (RT-qPCR) ([1]; 125 mg/kg BID, two weeks): blunted
- hepatic steatosis (H&E) ([1]; 125 mg/kg BID, two weeks): minimal decreases in hepatic steatosis
- lipid content by Oil Red O ([1]; 125 mg/kg BID, two weeks): minimal changes in lipid content
- liver triglyceride (hepatic lipid levels) ([1]; 125 mg/kg BID, two weeks): no notable decrease
- serum ALT levels ([1]; 125 mg/kg BID, two weeks): marginal decreases
- serum AST levels ([1]; 125 mg/kg BID, two weeks): marginal decreases
- protein expression levels of CPT1A, VLDLR, and ACC1 (western blot) ([1]; relative to vehicle control): not observed
- tolerability ([2]; 125 mg/kg, BID, three weeks): well tolerated
- body weight [2, 4]: no observed weight change
- cholesterol levels in serum [2, 4]: No changes
- cholesterol levels in the liver [2, 4]: No changes
- liver triglyceride levels [2, 4]: observed decrease
- serum blood urea nitrogen (BUN) [2, 4]: no drug-induced kidney damage
- serum creatinine [2, 4]: no drug-induced kidney damage
- serum triglyceride levels [2, 4]: no significant change
- oral bioavailability ([2]; mice): orally bioavailable
- protein expression levels of VLDLR (western blot) ([3]; liver samples of Example 3): increase in protein expression levels
- GSEA: inflammatory response [3, 5]: negative correlation
- GSEA: oxidative phosphorylation, fatty acid metabolism, peroxisomes [3, 5]: significantly upregulated
- genes of the PPAR signaling pathway (2021 KEGG human database) [3, 5]: upregulated various genes under PPAR transcriptional control
- expression of VLDLR gene (mRNA, qPCR) ([3]; liver samples of Example 3, relative to r18S mRNA): significant increase
- highest upregulated genes (RNA-seq of liver) ([3]; liver samples of Example 3, FDR cutoff 0.05, 2-fold change): canonical PPAR-alpha target genes
